Reference: article PMC8779868, “Uncovering Novel Plasma Membrane Carboxylate Transporters in the Yeast Cyberlindnera jadinii” (Journal of Fungi, 2022)
One block for each molecule: values may come before it.

Tests used:
CjSlc16 = target: T1, CjSlc16 (Williopsis jadinii, UniProt A0A1E4RTM6); details: pH 6.0, 30 °C; labelled compound
T1 construct: gene CYBJADRAFT_170140

CjSlc13-2 = target: T2, CjSlc13-2 (Williopsis jadinii, UniProt A0A1E4S914); details: pH 6.0, 30 °C; labelled compound
T2 construct: gene CYBJADRAFT_165372
T2 sequence (A0A1E4S914 1-821): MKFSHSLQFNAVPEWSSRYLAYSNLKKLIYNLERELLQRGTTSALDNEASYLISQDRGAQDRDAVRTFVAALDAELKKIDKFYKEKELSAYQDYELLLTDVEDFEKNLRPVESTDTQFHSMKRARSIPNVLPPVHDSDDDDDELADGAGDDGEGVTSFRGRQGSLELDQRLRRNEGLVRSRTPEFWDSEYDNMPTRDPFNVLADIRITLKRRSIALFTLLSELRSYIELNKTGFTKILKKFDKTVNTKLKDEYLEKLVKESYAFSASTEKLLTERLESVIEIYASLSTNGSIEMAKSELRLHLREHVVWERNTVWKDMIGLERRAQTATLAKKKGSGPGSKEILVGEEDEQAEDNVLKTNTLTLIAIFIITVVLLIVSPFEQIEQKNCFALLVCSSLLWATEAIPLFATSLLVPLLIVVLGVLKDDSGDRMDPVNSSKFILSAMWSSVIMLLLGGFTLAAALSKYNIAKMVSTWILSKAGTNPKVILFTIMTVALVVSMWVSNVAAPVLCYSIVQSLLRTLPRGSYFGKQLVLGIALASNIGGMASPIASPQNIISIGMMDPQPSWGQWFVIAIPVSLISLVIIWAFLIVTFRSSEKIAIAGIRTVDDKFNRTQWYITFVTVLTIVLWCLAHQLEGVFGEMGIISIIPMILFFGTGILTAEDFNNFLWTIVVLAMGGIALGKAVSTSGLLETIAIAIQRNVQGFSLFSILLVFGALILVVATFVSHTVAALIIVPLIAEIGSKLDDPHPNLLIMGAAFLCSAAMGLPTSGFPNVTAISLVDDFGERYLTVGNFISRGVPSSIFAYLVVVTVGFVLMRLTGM

CjSlc13-1 = target: T3, CjSlc13-1 (Williopsis jadinii, UniProt A0A1E4RYH4); details: pH 6.0, 30 °C; labelled compound
T3 construct: gene CYBJADRAFT_194887
T3 sequence (A0A1E4RYH4 1-843): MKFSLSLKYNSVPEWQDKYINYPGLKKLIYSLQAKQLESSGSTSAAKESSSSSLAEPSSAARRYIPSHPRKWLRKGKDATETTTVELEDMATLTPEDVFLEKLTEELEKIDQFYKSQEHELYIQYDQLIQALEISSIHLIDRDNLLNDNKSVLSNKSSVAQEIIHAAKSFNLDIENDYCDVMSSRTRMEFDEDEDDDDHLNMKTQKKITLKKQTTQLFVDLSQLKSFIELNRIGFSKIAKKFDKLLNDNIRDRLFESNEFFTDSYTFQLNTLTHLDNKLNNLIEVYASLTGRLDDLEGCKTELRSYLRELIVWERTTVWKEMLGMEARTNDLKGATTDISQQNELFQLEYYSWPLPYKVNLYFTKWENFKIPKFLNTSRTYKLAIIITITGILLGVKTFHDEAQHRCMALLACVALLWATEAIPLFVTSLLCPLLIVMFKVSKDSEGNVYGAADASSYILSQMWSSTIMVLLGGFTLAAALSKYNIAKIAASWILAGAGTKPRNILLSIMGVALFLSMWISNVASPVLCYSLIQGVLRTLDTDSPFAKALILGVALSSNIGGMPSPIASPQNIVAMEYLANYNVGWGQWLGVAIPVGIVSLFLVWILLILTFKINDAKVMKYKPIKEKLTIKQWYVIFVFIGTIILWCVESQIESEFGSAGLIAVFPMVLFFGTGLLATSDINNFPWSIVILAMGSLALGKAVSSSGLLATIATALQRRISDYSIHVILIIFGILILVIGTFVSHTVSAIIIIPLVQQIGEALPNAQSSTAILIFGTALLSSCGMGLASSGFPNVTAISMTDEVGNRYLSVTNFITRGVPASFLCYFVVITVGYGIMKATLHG

CjAto5 = target: T4, CjAto5 (Williopsis jadinii, UniProt A0A1E4RU05); assay: […]-succinate uptake, initial rates in S. cerevisiae IMX1000; type: cell-based; details: pH 5.0, 30 °C; labelled compound
T4 construct: gene CYBJADRAFT_178915; full ORF in p416GPD, expressed in S. cerevisiae IMX1000; cloned from DSM 2361 DNA
T4 sequence (A0A1E4RU05 1-272): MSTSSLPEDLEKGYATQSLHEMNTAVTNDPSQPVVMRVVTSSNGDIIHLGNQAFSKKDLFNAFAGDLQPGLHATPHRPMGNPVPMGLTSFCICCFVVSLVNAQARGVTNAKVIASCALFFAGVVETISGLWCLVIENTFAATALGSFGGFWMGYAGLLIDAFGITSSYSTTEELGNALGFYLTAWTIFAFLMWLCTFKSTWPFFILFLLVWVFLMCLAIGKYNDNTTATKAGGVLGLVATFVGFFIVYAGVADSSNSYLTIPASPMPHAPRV

CjAto2 = target: T5, CjAto2 (Williopsis jadinii, UniProt A0A1E4S9G0); assay: as above; type: cell-based; details: pH 5.0, 30 °C; labelled compound
T5 construct: gene CYBJADRAFT_7539; full ORF in p416GPD, expressed in S. cerevisiae IMX1000; cloned from DSM 2361 DNA

[1] = substrate: O=C(O)CC(O)(CC(=O)O)C(=O)O; assay: cells, lysate or membranes; details: pH 5.5, 30 °C, labelled compound, pH 5.5
[2] = substrate: C[C@H](O)C(=O)O; assay: cells, lysate or membranes; details: pH 5.0, 30 °C, labelled compound, pH 5.0

T1 sequence (A0A1E4RTM6 1-470): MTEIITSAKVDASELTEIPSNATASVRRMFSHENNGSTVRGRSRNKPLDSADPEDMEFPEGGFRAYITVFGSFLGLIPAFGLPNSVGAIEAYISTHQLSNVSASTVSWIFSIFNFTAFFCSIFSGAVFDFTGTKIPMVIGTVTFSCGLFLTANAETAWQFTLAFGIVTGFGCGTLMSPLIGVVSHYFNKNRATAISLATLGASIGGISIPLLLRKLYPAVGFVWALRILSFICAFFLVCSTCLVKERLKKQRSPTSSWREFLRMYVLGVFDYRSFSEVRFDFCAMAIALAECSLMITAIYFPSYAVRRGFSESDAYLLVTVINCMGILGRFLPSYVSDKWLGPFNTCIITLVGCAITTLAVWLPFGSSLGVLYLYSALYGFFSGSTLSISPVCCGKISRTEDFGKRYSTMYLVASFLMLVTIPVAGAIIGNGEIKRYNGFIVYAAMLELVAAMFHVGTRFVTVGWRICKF

Molecule: CC(=O)O [acetic acid]
uptake (CjSlc16): All transformants presented activity for acetate uptake (Figure 3C)
uptake (CjSlc13-2): All transformants presented activity for acetate uptake (Figure 3C)
uptake (CjSlc13-1): All transformants presented activity for acetate uptake (Figure 3C)

Km (CjAto5): 0.45 ± 0.09 mM
Km (CjAto2): 3.38 ± 0.82 mM
Molecule: O=C(O)CCC(=O)O [succinic acid]

B1: CjSlc5 (Williopsis jadinii) (protein)
chain: MFAETEDGPDYRGVTTFGAAVLIAKGQLGLGVLGIPSTFDVLGFVPGLISLVGLSILVTWTGVVIGQFRLAHPKVYCIDDATEIMFGKAARELVGWGYWLFYTMCYGAALITVSIALNTFSDHGLCTMAFIGIATGATTILTLFTRTMKVLSWLGFIAISCIFFAIWVVAIACLTQSTPAAAESLVDPAKKVIQVVATHSSYKKIAAAVSVQLLSLAGGASFFTIHAEMKDQTKYTKSLLMGQGFIVFNYIAIACIMYAKVGQYIASPALGSAGRTFQIISYGIAFPGLMFSCFFLAHLAAKYALVRILRGTEHLQKNSKTHWITWTAMVAIVIAVGFVIAGAIPFFGDLLGLIGALLGSIFALIAPGFMCLYDMNYKFEGKVPRGYTWIYKNNGSWTKNFWTKLETLLSFFCIASGIYILFTGVYGSIASIADLYSSGAVSGAFSCADNS
Km [1]: 17.24 ± 4.73 mM

B2: CjAto2 (Williopsis jadinii) (protein)
chain: MSSINEDLEKISSLGELNYDSHPISQVRTAGPNDEFVMLGRMKVRKSELWSAFGGDLQPGVHAQPQRKFANPVPIGLCGFALTTLVLSMANARAMGIRTPNVAVAPAFFYGGFAQILAGMWEIALENTFGSVVLTSYGCFWLSWAAIEIDWFGIKAAYDDPIELENAIGFFLLGWVIFTFLILLCTMKSTVAFFSMFFLLEITFILLTVASFTRHVGCQRAGGVFGVITGFLAWYNAYAGIATKEISYFVPKPWPLPGASHL
Km [2]: 4.33 ± 0.70 mM

B3: CjJen6 (Williopsis jadinii) (protein)
chain: MGFKTYSMSECAQYTRERFTTLLPSREQWEVEKSHMNPFPGLRAMTWRNWQFYIIGMLAWTWDALDFFAMSLNMSNISEDLNRSVKDVSWGITLVLMFRSVGAIFFGYFGDRYGRKWPLIVNLICLIVIQIGTGFVKTYSEFLGVRALFGIFMGSMYGLASATALEGLPTDARSFLSGVFQQGYALGYLLAVIFQRAITDTTEKGWRSLFWFSAGPPVLFILWRAFLPETEEFLQQKLHMSNRKSTFRRDAWNTFKQQWVKMGYLVLLMAGMNFMSHGSQDLYPTMLTKQLGFSSDRSTVTNSVANLGAMAGGMVIGHFSGFIGRRAAIMVCCICGGAMIYPWAFVTGNGINAGVFFLQFFVQGAWGVIPIHLSELSPPEFRAFVVGVSYQLGNLVSSASSTIETTIGERFPLYTETGERREGVYDYAKVMAIFVGAVFAYVFLISFIGPENRHANINFVLSDEEQREMVSQGKIITHKGSDDENLDEEKAVAFHTENVVSEVK
Km [1]: 21.44 ± 7.17 mM
